Reference: patent US10428017B2, “Modulators of the cystic fibrosis transmembrane conductance regulator protein and methods of use” (AbbVie S.à.r.l., priority 2017, dated 2019)
Like-named read-outs stand apart in the source and are kept apart here.

Target: T1, F508delCFTR (Homo sapiens, UniProt P13569, DEL508-508)
T1 construct: expressed in transfected cells; host or cells: CFBE4lo-F508delCFTR-HRP cells (human lung derived epithelial cell line, doxycycline-inducible)
Experiment: Cell Surface Expression-Horse Radish Peroxidase (CSE-HRP) Assay
Type: cell-based
Details: for EC50: CFBE4lo-F508delCFTR-HRP cells, 18-24 hours at 33° C.; for Emax / Maximum % activity (with co-corrector): maximum at any tested concentration (up to 20 μM), normalized to on-plate positive control (2 μM co-corrector); for Maximum % activity (with co-corrector): with co-corrector 2 μM
Protocol: Cell Surface Expression-Horse Radish Peroxidase (CSE-HRP) Assay
A cellular assay for measuring the F508delCFTR cell surface expression after correction with test compounds either without or with a co-corrector (2 μM of 3-[(2R,4R)-4-({[1-(2,2-difluoro-1,3-benzodioxol-5-yl)cyclopropyl]carbonyl}amino)-7-methoxy-3,4-dihydro-2H-chromen-2-yl]benzoic acid), was developed in human lung derived epithelial cell line (CFBE4lo−) (Veit G et al, (2012) Mol Biol Cell. 23(21): 4188-4202). The development was achieved by expressing the F508delCFTR mutation along with a horseradish peroxidase (HRP) in the fourth exofacial loop, and then measuring the HRP activity using luminescence readout from these cells, CFBE4lo-F508delCFTR-HRP, that were incubated overnight with the test corrector compounds, either without or with the co-corrector. For this primary assay, the CFBE4lo-F508delCFTR-HRP cells were plated in 384-well plates (Greiner Bio-one; Cat 781080) at 4,000 cells/well along with 0.5 μg/mL doxycycline to induce the F508delCFTR-HRP expression and further incubated at 37° C., 5% CO2 for 72 hours. The test compounds were then added either without or with a co-corrector at the required concentrations and further incubated for 18-24 hours at 33° C. The highest concentration tested was 20 μM with an 8-point concentration response curve using a 3-fold dilution in both the test compound without or with the co-corrector. Three replicate plates were run to determine one EC50. All plates contained negative controls (dimethyl sulfoxide, DMSO) and positive control (2 μM of 3-[(2R,4R)-4-({[1-(2,2-difluoro-1,3-benzodioxol-5-yl)cyclopropyl]carbonyl}amino)-7-methoxy-3,4-dihydro-2H-chromen-2-yl]benzoic acid) as well as on-plate concentration response of the positive control. Post incubation, the plates were washed 5× times with Dulbecco's phosphate buffered saline (DPBS), followed by the addition of the HRP substrate, luminol (50 μL), and measuring the HRP activity using luminescence readout on EnVision® Multilabel Plate Reader (Perkin Elmer; product number 2104-0010). The raw counts from the experiment were analyzed using Accelrys® Assay Explorer v3.3.
Z′ greater than 0.5 was used as passing quality control criteria for the plates.
The Z′ is defined as: 1−[3*SDPositive Control+3*SDNegative Control/Absolute(Meanpostivie Control−MeanNegative Control)] wherein “SD” is standard deviation.
The % activity measured at each of the 8 test concentrations of the test compound added either without or with a co-corrector (2 μM of 3-[(2R,4R)-4-({[1-(2,2-difluoro-1,3-benzodioxol-5-yl)cyclopropyl]carbonyl}amino)-7-methoxy-3,4-dihydro-2H-chromen-2-yl]benzoic acid) was normalized to the on-plate positive control using the following formulae: % activity(Test compound without co-corrector)=[(test compound without co-corrector response−DMSO response)/(positive control response−DMSO response)]*100 % activity(Test compound with co-corrector)=[(test compound with co-corrector response−DMSO response)/(positive control response−DMSO response)]*100
The maximum % activity achieved for the test compound either without or with a co-corrector at any tested concentration is presented in Table 1 along with the respective EC50's calculated using the following general sigmoidal curve with variable Hill slope equation (described as Model 42 in the Accelrys® Assay Explorer v3.3 software): y=(a−d)/(1+(x/c)^b)+d
General sigmoidal curve with concentration, response, top, bottom, EC50 and Hill slope. This model describes a sigmoidal curve with an adjustable baseline, a. The equation can be used to fit curves where response is either increasing or decreasing with respect to the independent variable, “x”.
“x” is a concentration of drug under test.
“a” is the maximum response, and “d” is the minimum response
“c” is the inflection point (EC50) for the curve. That is, “y” is halfway between the lower and upper asymptotes when x=c.
“b” is the slope-factor or Hill coefficient. […]

[1] = test compound without co-corrector, HRP luminescence readout, read-out: EC50 (without co-corrector)
[2] = test compound without co-corrector
[3] = with co-corrector 2 μM 3-[(2R,4R)-4-({[1-(2,2-difluoro-1,3-benzodioxol-5-yl)cyclopropyl]carbonyl}amino)-7-methoxy-3,4-dihydro-2H-chromen-2-yl]benzoic acid, read-out: EC50 (with co-corrector)

T1 sequence (P13569 with tags, fused parts or gaps DEL508-508): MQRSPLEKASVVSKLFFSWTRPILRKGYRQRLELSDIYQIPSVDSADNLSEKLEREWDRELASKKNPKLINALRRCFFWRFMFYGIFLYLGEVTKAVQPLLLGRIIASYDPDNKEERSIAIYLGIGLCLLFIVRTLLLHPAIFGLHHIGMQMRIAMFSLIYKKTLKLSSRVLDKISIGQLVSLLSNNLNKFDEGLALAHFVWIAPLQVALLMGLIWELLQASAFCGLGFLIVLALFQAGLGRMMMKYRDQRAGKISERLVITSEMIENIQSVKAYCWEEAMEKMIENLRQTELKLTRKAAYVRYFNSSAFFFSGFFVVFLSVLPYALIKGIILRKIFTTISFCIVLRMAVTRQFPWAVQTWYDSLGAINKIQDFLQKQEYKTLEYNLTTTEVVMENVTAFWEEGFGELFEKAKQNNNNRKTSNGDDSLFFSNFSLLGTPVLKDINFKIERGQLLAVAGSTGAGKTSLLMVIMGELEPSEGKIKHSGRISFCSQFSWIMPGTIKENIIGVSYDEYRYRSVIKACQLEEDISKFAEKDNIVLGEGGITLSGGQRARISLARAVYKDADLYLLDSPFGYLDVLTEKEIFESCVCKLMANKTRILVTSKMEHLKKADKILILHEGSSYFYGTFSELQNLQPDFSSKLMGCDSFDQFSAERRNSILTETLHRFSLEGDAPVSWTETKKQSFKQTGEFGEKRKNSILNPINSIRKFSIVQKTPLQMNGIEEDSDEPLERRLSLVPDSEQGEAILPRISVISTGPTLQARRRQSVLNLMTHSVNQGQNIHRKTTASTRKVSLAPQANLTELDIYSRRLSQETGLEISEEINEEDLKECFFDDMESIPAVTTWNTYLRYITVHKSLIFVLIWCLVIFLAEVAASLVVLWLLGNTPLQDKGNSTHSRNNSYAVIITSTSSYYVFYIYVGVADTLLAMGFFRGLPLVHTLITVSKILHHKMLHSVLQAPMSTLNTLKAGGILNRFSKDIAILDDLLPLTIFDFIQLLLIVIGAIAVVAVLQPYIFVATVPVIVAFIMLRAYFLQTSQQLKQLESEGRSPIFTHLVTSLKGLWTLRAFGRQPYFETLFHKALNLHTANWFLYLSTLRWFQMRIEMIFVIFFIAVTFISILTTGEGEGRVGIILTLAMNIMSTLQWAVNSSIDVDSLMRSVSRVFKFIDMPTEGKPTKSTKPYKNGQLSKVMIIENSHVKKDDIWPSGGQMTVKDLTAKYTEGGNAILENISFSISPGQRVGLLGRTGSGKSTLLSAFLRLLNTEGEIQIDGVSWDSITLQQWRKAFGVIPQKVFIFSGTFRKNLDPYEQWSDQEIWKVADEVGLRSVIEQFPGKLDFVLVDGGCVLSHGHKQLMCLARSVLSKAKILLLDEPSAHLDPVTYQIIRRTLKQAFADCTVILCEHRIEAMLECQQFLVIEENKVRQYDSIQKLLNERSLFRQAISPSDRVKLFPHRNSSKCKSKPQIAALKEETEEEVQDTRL

EC50 [1] [µM]	Emax [2] [%]	EC50 [3] [µM]	Maximum % activity (with co-corrector)	Structure (SMILES)
≥ 10	< 50	≥ 10	+ (<150)	Cc1ccccc1S(=O)(=O)NC(=O)C1COc2ccc(Cl)cc21 (stereo not shown) [Example 27, 5-chloro-N-(2-methylbenzene-1-sulfonyl)-2,3-dihydro-1-benzofuran-3-carboxamide]
< 3	≥ 150	< 3	+++ (≥350)	COc1ccc(C2CCC2)c2c1C(C(=O)NS(=O)(=O)c1cccc3c1CCCN3)CCO2 (stereo not shown) [Example 85, 8-cyclobutyl-5-methoxy-N-(1,2,3,4-tetrahydroquinoline-5-sulfonyl)-3,4-dihydro-2H-1-benzopyran-4-carboxamide]
3 to 10	≥ 150	3 to 10	+++ (≥350)	COc1cccc2c1C(C(=O)NS(=O)(=O)c1cccc3ccccc13)CCO2 (stereo not shown) [Example 9, 5-methoxy-N-(naphthalene-1-sulfonyl)-3,4-dihydro-2H-1-benzopyran-4-carboxamide]
3 to 10	50 to 150	3 to 10	++ (≥150 and <350)	O=C(NS(=O)(=O)c1cccc2ccccc12)C1COc2c(Br)cccc21 (stereo not shown) [Example 21, 7-bromo-N-(naphthalene-1-sulfonyl)-2,3-dihydro-1-benzofuran-3-carboxamide]
3 to 10	≥ 150	3 to 10	+++ (≥350)	COc1ccc(C2CCC2)c2c1[C@@H](C(=O)NS(=O)(=O)c1cccc3c1CCCN3)CCO2 [Example 91, (4S)-8-cyclobutyl-5-methoxy-N-(1,2,3,4-tetrahydroquinoline-5-sulfonyl)-3,4-dihydro-2H-1-benzopyran-4-carboxamide]
3 to 10	≥ 150	3 to 10	+++ (≥350)	CCC1(C(=O)NS(=O)(=O)c2cccc3ccccc23)COc2c(C(F)(F)F)cccc21 (stereo not shown) [Example 61, 3-ethyl-N-(naphthalene-1-sulfonyl)-7-(trifluoromethyl)-2,3-dihydro-1-benzofuran-3-carboxamide]
< 3	≥ 150	< 3	+++ (≥350)	COc1ccc(C2CCC2)c2c1C(C(=O)NS(=O)(=O)c1cccc3ncn(C)c13)CO2 (stereo not shown) [Example 87, 7-cyclobutyl-4-methoxy-N-(1-methyl-1H-benzimidazole-7-sulfonyl)-2,3-dihydro-1-benzofuran-3-carboxamide]
< 3	≥ 150	< 3	+++ (≥350)	COc1ccc(C2CCC2)c2c1[C@H](C(=O)NS(=O)(=O)c1cccc3c1NCCC3)CO2 [Example 99, (3S)-7-cyclobutyl-4-methoxy-N-(1,2,3,4-tetrahydroquinoline-8-sulfonyl)-2,3-dihydro-1-benzofuran-3-carboxamide]
3 to 10	≥ 150	3 to 10	+++ (≥350)	COc1cccc2c1C(C(=O)NS(=O)(=O)c1cccc3ncccc13)CC(C)(C)O2 (stereo not shown) [Example 48, 5-methoxy-2,2-dimethyl-N-(quinoline-5-sulfonyl)-3,4-dihydro-2H-1-benzopyran-4-carboxamide]
3 to 10	< 50	3 to 10	++ (≥150 and <350)	C[C@@]1(C(=O)NS(=O)(=O)c2cccc3ccccc23)COc2cc3c(cc21)OC(F)(F)O3 [Example 32, (7S)-2,2-difluoro-7-methyl-N-(naphthalene-1-sulfonyl)-6,7-dihydro-2H-furo[2,3-f][1,3]benzodioxole-7-carboxamide]
3 to 10	≥ 150	3 to 10	+++ (≥350)	COc1ccc(C2CCC2)c2c1[C@@H](C(=O)NS(=O)(=O)c1cccc3ncccc13)CO2 (single isomer, unassigned) [Example 82]
< 3	≥ 150	< 3	+++ (≥350)	COc1ccc(C2CCC2)c2c1C(C(=O)NS(=O)(=O)c1cccc3[nH]ccc13)CCO2 (stereo not shown) [Example 102, 8-cyclobutyl-N-(1H-indole-4-sulfonyl)-5-methoxy-3,4-dihydro-2H-1-benzopyran-4-carboxamide]
≥ 10	< 50	≥ 10	+ (<150)	Cc1ccccc1S(=O)(=O)NC(=O)C1Cc2ccccc2O1 (stereo not shown) [Example 17, N-(2-methylbenzene-1-sulfonyl)-2,3-dihydro-1-benzofuran-2-carboxamide]
3 to 10	< 50	3 to 10	++ (≥150 and <350)	COc1ccc(C2CCC2)c2c1OCC[C@@H]2C(=O)NS(=O)(=O)c1cccc2ncccc12 (single isomer, unassigned) [Example 107]
3 to 10	50 to 150	3 to 10	+++ (≥350)	CCC1(C(=O)NS(=O)(=O)c2cccc3ccccc23)COc2c(OC)cccc21 (stereo not shown) [Example 15, 3-ethyl-7-methoxy-N-(naphthalene-1-sulfonyl)-2,3-dihydro-1-benzofuran-3-carboxamide]
< 3	≥ 150	< 3	+++ (≥350)	CCC1(C(=O)NS(=O)(=O)c2cccc3ccccc23)CCOc2cccc(OC)c21 (stereo not shown) [Example 10, 4-ethyl-5-methoxy-N-(naphthalene-1-sulfonyl)-3,4-dihydro-2H-1-benzopyran-4-carboxamide]
3 to 10	≥ 150	3 to 10	+++ (≥350)	O=C(NS(=O)(=O)c1cccc2ccccc12)C1CCOc2c(Cl)cccc21 (stereo not shown) [Example 7, 8-chloro-N-(naphthalene-1-sulfonyl)-3,4-dihydro-2H-1-benzopyran-4-carboxamide]
< 3	≥ 150	< 3	+++ (≥350)	COc1ccc(Br)c2c1C(C(=O)NS(=O)(=O)c1cccc3ncccc13)CC(C)(C)O2 (stereo not shown) [Example 46, 8-bromo-5-methoxy-2,2-dimethyl-N-(quinoline-5-sulfonyl)-3,4-dihydro-2H-1-benzopyran-4-carboxamide]
< 3	50 to 150	< 3	+++ (≥350)	CCSC[C@H]1C[C@@](C(=O)NS(=O)(=O)c2cccc3ccccc23)(c2ccccc2)c2ccccc2O1 [Example 2, (2R,4R)-2-[(ethylsulfanyl)methyl]-N-(naphthalene-1-sulfonyl)-4-phenyl-3,4-dihydro-2H-1-benzopyran-4-carboxamide]
